Results published in US20130085146A1, “LIPID-DRUG FORMULATIONS AND METHODS FOR TARGETED DELIVERY OF LIPID-DRUG COMPLEXES TO LYMPHOID TISSUES” (priority 2003, published 2013).
“Also recorded” adds a separate entry of the source. Structures can show the parent of a compound that is named as a salt. Where two headings read alike, the source gives them in different places.

Key:
HIV-2287 [1] = test: In situ hybridization of lymph node sections for HIV-2 RNA; type: in vivo, Macaca nemestrina; details: for viral RNA in lymph nodes: 20 mg/kg for 14 days, necropsy day 20
Procedure: Histological analysis of HIV-infected cells: Histologic sections of lymph node were examined using in situ hybridization for HIV-2 gag RNA. Biopsy and postmortem tissues were preserved in fresh 4% deionized paraformaldehyde, embedded in paraffin wax, and sectioned to 5 μm. The sections were deparaffinized, rehydrated in Tris-buffered saline (TBS; 0.1 M Tris [pH 7.5], 0.1 M NaCl), digested with proteinase K (20-40 μg/ml, 37° C., for 30-50 min; Sigma), and treated overnight at 37° C. in a RNase-free DNase-1 solution (Boehringer Mannheim), as described previously.
The sections were then incubated for 5 min at 70° C. followed by 4 h at 42° C. with antisense RNA probes directed either to SW (strain mac251; Zhang Z Q, Schuler T, Cavert W, et al. Reversibility of the pathological changes in the follicular dendritic cell network with treatment of HIV-1 infection. Proc Nati Acad Sci U S A 1999;96 (9):5169-72) or HIV-2 gag-pol (stain 287; gag 2639-1080, pol 3473-2306; Galabru J, Rey-Cuille M A, Hovanessian A G. Nucleotide sequence of the HIV-2 EHO genome, a divergent HIV-2 isolate. AIDS Res Hum Retroviruses 1995;11 [7]:873-4). The RNA probes were constructed by cloning cDNA into transcription vectors under the control of T7 and SP6 RNA polymerase promoters (pGEM, Promega; Madison, Wis.). […] HIV-2 RNA was detected after autoradiographic exposures of 24 and 96 h.
The presence of viral RNA was indicated by deposition of silver grains on top of cells or as aggregates within lymph node germinal centers (FIG. 7) at a frequency statistically greater than background, as determined using Image-Pro® Plus software (Media Cybernetics, Silver Spring, Md.). Nonspecific background was determined in two ways with equivalent results. Silver grains were counted over 100 germinal center cells in tissue sections from mock-inoculated uninfected animals after hybridization to the HIV-2 or SIV antisense probe, or over cells from the tissues of infected monkeys after hybridization to noncomplimentary ‘sense’ RNA probes. […]

[2] = SC 10 mg/kg single dose
Procedure: These samples were resuspended in 100 μL, and a 10 μL sample was injected onto an RX-C8 column (21 mm×15 cm column) and eluted isocratically with a mobile phase containing 20 mM ammonium acetate in acetonitrile:water (65:35, v/v) running at 0.38 ml/min. […] Under these conditions, the detection limit was 100 pg, which made it possible to measure drug levels, extract RNA and DNA, isolate cells for detailed analyses of vRNA and vDNA-infected cells in lymph nodes, and fix the tissue for pathological analyses from limited sample size.

[3] = Indinavir accumulation in lymph nodes after oral free indinavir; type: in vivo, macaques; details: macaque; for Kp at […]: po, 25 mg/kg; for Kp at […] / Kp at 2 hr / Kp at 3.75 hr: read-out: Lymph node to plasma ratio; for Kp at 2 hr / Kp at 3.75 hr: oral 25 mg/kg; for Kp at 2 hr / concentration at 2 hr: animal 94094; for Kp at 3.75 hr / concentration at 3.75 hr: animal 94096; for concentration at 2 hr / concentration at 3.75 hr: oral 25 mg/kg in solution
HIV-2287 [4] = type: in vivo, Macaca nemestrina; details: for CD4+ T cell, After: after therapy; for CD4+ T cell, After / CD4+ T cell, Before: SC 22 mg/kg daily, 14 doses; for CD4+ T cell, Before: before therapy
Procedure: Total RNA was isolated from plasma and lymphoid tissues using a Purescript RNA Isolation Kit (Gentra Systems, Minneapolis, Minn.). Viral RNA was measured using a quantitative, internally-controlled RNA PCR to estimate the number of HIV-2 copies/ml of sample (Watson A, Ranchalis J, Travis B, et al., Plasma viremia in macaques infected with simian immunodeficiency virus: plasma viral load early in infection predicts survival, J Virol 1997;71 (1):284-90) for some of the experiments and real-time quantitative PCR. The two methods have been validated to ensure consistency in estimating viral RNA concentration in plasma and tissues. Briefly, reverse transcription and PCR were performed as described. Because semi-quantitative methods have been well-documented (Watson, et al., 1997), only details on RT-QPCR are described below.
Lymphocyte subset analysis: Fluorescent labeled monoclonal antibodies to lymphocyte surface markers were used to quantitate populations of T cells (CD2+), helper T cells (CD4^+), suppressor T cells (CD8^+), and B cells (CD20^+) in maternal (1 ml) and fetal (150 μl) blood using procedures previously described (Ho R J, Agy M B, Morton W R, et al. Development of a chronically catheterized maternal-fetal macaque model to study in utero mother-to-fetus HIV transmission: a preliminary report. J Med Primatol 1996;25 (3):218-24).
Plasma cholesterol level was monitored to evaluate the effects of cholesterol given as a part of lipid formulation.

HIV-2287 [5] = test: microbe, parasite or virus in culture; type: cell-based, HIV-2
Procedure: (§1) The effective concentrations that produce half the maximum anti-HIV activity (EC50) were determined based on non-linear regression of each set of data, representing the frequency of replication.
After incubating the cells at 37° C. in RPMI 1640 containing 10% fetal calf serum for 4 days (optimum detection time), the presence of virus-infected cells was determined visually by the presence of syncytia and was subsequently confirmed by ELISA detection of the presence of HIV-2 antigen. Experiments were repeated on at least two different days with each determination done in quadruplicate samples, and the data presented in FIG. 3 are the mean % virus-infected cells.

[6] = Particle size of lipid-drug complex (photon correlation spectroscopy); type: physicochemical; details: drug associated with lipid membranes, pH 7.4
Procedure: (§2) The mixture was rotor-evaporated under N2 and reduced pressure. Then it was resuspended in sterile phosphate-buffered saline (PBS, pH 7.4), to a final lipid concentration of 50 mM, and homogenized with a probe sonicator until a uniform particle size of about 50 nm to about 80 nm diameter was reached. Sonication is preferably done until sonicated unilamellar vesicles that are stable at their minimum diameter are obtained. […] The size and zeta potential (surface potential at hydrodynamic plane) of the lipid-drug complex was monitored using a Malvern Zetasizer 5000 operating at photon correlation spectroscopy mode and electrophoretic mode, respectively. […] The rest of the preparation procedure remains the same.

[7] = Example 10; SC 20 mg/kg/day, two animals
[8] = Degree of drug incorporation into lipid-drug complex (size-exclusion chromatography); type: physicochemical; details: for Degree of Lipid Association (% total): drug associated with lipid membranes, pH 7.4
Procedure: as §2
The degree of drug incorporation into the lipid-drug complex was determined by subjecting a small fraction of the preparation to size-exclusion chromatography using a Biogel A-0.5 M media (1×10 cm). […] By analyzing the amount of fraction in the lipid-associated complex, and free form with respect to the total amount loaded onto the column, the percentage of drug association was determined. (Lian, T. and Ho, R. J. Y., Recent trend and progress in liposome drug delivery systems; an invited minireview, J Pharm Sci 90:667-680 [2001]). To determine pH-dependent drug dissociation from the lipid-drug complex, the lipid-drug complex (originally prepared in pH 7.4 and free of unincorporated drug) can be incubated at, e.g., pH 7, 6, 5.5, 5, 4, 3.5 for 30 min. Subsequently, the mixture can be subjected to the degree of drug incorporation analysis described above. For animal studies, the drug-lipid complex formulations were further analyzed for sterility and endotoxin contamination. To ensure sterility and prevent underestimation of endotoxin that binds to lipids, the lipid-drug complex preparations were subjected to a blood agar culture test for 7 days at 37° C. for detection of microbial contamination.
Subsequently, the % lipid-association was determined by separating free from lipid-associated drug by size-exclusion column chromatography. Data expressed were means of duplicate preparations for indicated pH value.

HIV-1LAV = test: Inhibition of HIV-1LAV replication in human PBMCs (p24 antigen); type: cell-based; details: Human immunodeficiency virus 1, PBMC
Procedure: as §1

[9] = cited from earlier work
[10] = cited from earlier work; remark: listed apart in the source
[11] = axillary lymph node / plasma, axillary
[12] = inguinal lymph node / plasma, inguinal
[13] = neutral pH, listed as tenofovir

## CC(C)(C)NC(=O)[C@@H]1CN(Cc2cccnc2)CCN1C[C@@H](O)C[C@@H](Cc1ccccc1)C(=O)N[C@H]1c2ccccc2C[C@H]1O [Indinavir, N-(2(R)-hydroxy-1(S)-indanyl)-2(R)-phenylmethyl-4-(S)-hydroxy-5-(1-(4-(3-pyridyl-methyl)-2(S)-N′-(t-butylcarboxamido)-piperazinyl))-pentaneamide]
HIV-2287 [1]; axillary and mesenteric lymph nodes
  HIV-2 RNA in lymph node germinal centers (in words): showed aggregates of HIV-RNA in lymph node germinal centers
HIV-2287 [1]; macaque 215
  viral RNA in lymph nodes: 13,290±1,450 gag-pol RNA copies/50× field
HIV-2287 [1]; macaque 283
  viral RNA in lymph nodes: 8,134±890 gag-pol RNA copies/50× field
[2]
  time of plasma drug concentration peak: 0.5 to 1 h
[3]; axillary lymph node / plasma
  Kp at […]: 0.01
[3]; [11]
  Kp at 2 hr: 0.02
  Kp at 3.75 hr: 0.0035
[3]; axillary lymph node, axillary
  concentration at 2 hr: 0.084 ng/mL
  concentration at 3.75 hr: 0.141 ng/mL
[3]; inguinal lymph node / plasma
  Kp at […]: 0.03
[3]; [12]
  Kp at 2 hr: 0.01
  Kp at 3.75 hr: 0.01
[3]; inguinal lymph node, inguinal
  concentration at 2 hr: 0.056 ng/mL
  concentration at 3.75 hr: 0.481 ng/mL
[3]; plasma
  concentration at 2 hr: 5.2 ng/mL
  concentration at 3.75 hr: 39.8 ng/mL
HIV-2287 [4]; Example 10: SC 20 mg/kg/day for 14 days, 30 weeks post-infection
  plasma virus load: did not exhibit a significant virus load reduction
HIV-2287 [4]; four HIV-2287-infected animals, Table 5
  CD4+ T cells after two weeks of treatment (in words): the same pattern was not observed
HIV-2287 [4]; macaque 215
  CD4+ T cell, After: 1473 per μL
  CD4+ T cell, Before: 1946 per μL
HIV-2287 [4]; macaque 283
  CD4+ T cell, After: 1051 per μL
  CD4+ T cell, Before: 1650 per μL
HIV-2287 [5]; Human immunodeficiency virus 2, CEM174, 96 h, read-out: EC50 (50% effective inhibitory concentration)
  EC50: 50 to 80 nM
HIV-2287 [5]; Human immunodeficiency virus 2, CEM174, read-out: in vitro ED50 against HIV-2287
  EC50: 60 to 80 nM
[6]
  Size in Diameter: 69 ± 7 nm
[7]
  time by which drug levels subsided below detectable levels: 4 to 5 h
[8]; DSPC:mPE-DSPE formulation
  % Associated with lipid-drug nanoparticles: Indinavir: 97.5 ± 2.50%
[8]
  Degree of Lipid Association (% total): 97.5 ± 2.5 % total
[8]; neutral pH
  incorporation into lipid-drug complexes (in words): completely or nearly completely; also recorded: incorporate nearly completely
[8]; neutral pH, lipid-to-drug molar ratio about 5:1 to about 10:1
  indinavir preparation incorporated in lipid-indinavir complex: 80-100%
[8]; pH 4, lipid-to-drug ratio 5:1 (m/m)
  drug incorporated into the lipid bilayer of liposomes: < 30%
[8]; pH 7.4, lipid-to-drug ratio 5:1 (m/m)
  drug associated with liposome: 85-95%
HIV-1LAV; CD8-depleted human PBMCs, HIV-1 p24 antigen
  EC50: > 150 nM
HIV-1LAV; at 15 μM
  inhibition at 15 µM: < 100%
[9]; pH 3.5
  LogP (lipophilicity): 0
[9]; pH 5
  LogP (lipophilicity): 1.8
[9]; pH 7
  LogP (lipophilicity): 3

## Cc1c(O)cccc1C(=O)N[C@@H](CSc1ccccc1)[C@H](O)CN1C[C@H]2CCCC[C@H]2C[C@H]1C(=O)NC(C)(C)C (relative stereo) [Nelfinavir, [3S-[2(2S*, 3S*), 3a,4ab,8ab]]-N-(1,1-dimethylethyl)decahydro-2-[2-hydroxy-3-[(3-hydroxy-2-methylbenzoyl)amino]-4-(phenylthio)butyl]-3-isoquinolinecarboxamide mono-methanesulfonate (salt)]
[10]
  solubility in methanol, ethanol, isopropanol and propylene glycol: freely soluble
[10]; pH<4
  solubility in water: slightly soluble
[6]
  Size in Diameter: 123 ± 16 nm
[8]; DSPC:mPE-DSPE formulation
  % Associated with lipid-drug nanoparticles: Nelfinavir: 100 ± 9.8%
[8]
  Degree of Lipid Association (% total): 100.5 ± 9.8 % total
[8]; neutral pH
  incorporation into lipid-drug complexes (in words): incorporate nearly completely; also recorded: high degree of lipid association

## CC(C)OC(=O)OCOP(=O)(CO[C@H](C)Cn1cnc2c(N)ncnc21)OCOC(=O)OC(C)C.O=C(O)/C=C/C(=O)O [Viread ®, 9-[(R)-2-[[bis[[(isopropoxycarbonyl)oxy]methoxy]phosphinyl]methoxy]propyl]adenine fumarate (1:1)]
[6]
  Size in Diameter: 60 ± 10 nm
[8]
  Degree of Lipid Association (% total): 4.2 ± 0.7 % total

## CC(C)c1nc(CN(C)C(=O)N[C@H](C(=O)N[C@@H](Cc2ccccc2)C[C@H](O)[C@H](Cc2ccccc2)NC(=O)OCc2cncs2)C(C)C)cs1 [Ritonavir]
[8]; DSPC:mPE-DSPE formulation
  % Associated with lipid-drug nanoparticles: Ritonavir: 100 ± 1.0%

## O=C(O)CN(CC(=O)O)Cc1cc2c(cc1O)Oc1cc(O)c(CN(CC(=O)O)CC(=O)O)cc1C21OC(=O)c2ccccc21 [calcein]
[8]; neutral pH
  incorporation into lipid-drug complexes (in words): completely or nearly completely

## CC(C)(C)NC(=O)[C@@H]1C[C@@H]2CCCC[C@@H]2CN1C[C@@H](O)[C@H](Cc1ccccc1)NC(=O)[C@H](CC(N)=O)NC(=O)c1ccc2ccccc2n1 [Saquinavir, N-tert-butyl-decahydro-2-[2(R)-hydroxy-4-phenyl-3(S)-[[N-(2-quinolylcarbonyl)-L-asparaginyl]-amino]butyl]-(4aS,8aS)-isoquinoline-3 (S)-carboxamide]
[6]
  Size in Diameter: 159 ± 36 nm
[8]; DSPC:mPE-DSPE formulation
  % Associated with lipid-drug nanoparticles: Saquinavir: 98.9 ± 7.5%
[8]
  Degree of Lipid Association (% total): 98.8 ± 7.5 % total
[8]; neutral pH
  incorporation into lipid-drug complexes (in words): incorporate nearly completely; also recorded: high degree of lipid association

## Cc1cccc(C)c1OCC(=O)N[C@@H](Cc1ccccc1)[C@@H](O)C[C@H](Cc1ccccc1)NC(=O)[C@H](C(C)C)N1CCCNC1=O [Lopinavir]
[8]; DSPC:mPE-DSPE formulation
  % Associated with lipid-drug nanoparticles: Lopinavir: 100 ± 0.9%

## C[C@H](Cn1cnc2c(N)ncnc21)OCP(=O)(O)O [Tenofovir]
[10]; neutral pH
  solubility in water: soluble in water
[10]; [13]
  solubility in water: quite soluble
[8]; neutral pH
  incorporation into lipid-drug complexes (in words): quite low efficiency
[8]; [13]
  incorporation into lipid-drug complexes (in words): much lower efficiency
